Patent US20060264402A1, “Pest control formulation” (Redline, Inc., priority 2003, published 2006)

System: human skin
Experiment: Parasthesia irritation screening: one-gram drop placed on human skin, Parasthesia Irritation Rating (PIR)
Format: in vivo
Parameters: key: 0 = no discomfort, 4 = slight, 8 = noticeable, 12 = severe
Description: 1. Different ratios of active ingredient to IDPP are prepared for evaluation.
2. A one-gram drop of the ratio is placed on human skin. Only one drop is evaluated within a 24-hour period.
3. Irritation or sensitivity values are assigned according to the following scale (“Parasthesia Irritation Rating” or “PIR”): • 12=Severe • 8 =Noticeable discomfort • 4 =Slight discomfort • 0=No discomfort
4. If irritation is severe or noticeable at any time within a 24-hour period, the skin is washed and 5% lidocaine solution is applied to lessen discomfort.

[1] = ratio active agent:IDPP 0.67:1.00, within 24-hour period

| SMILES | Parasthesia Irritation Rating (ratio active agent:IDPP 0.18:1.00, within 24-hour period) | Parasthesia Irritation Rating (ratio active agent:IDPP 0.21:1.00, within 24-hour period) | Parasthesia Irritation Rating (ratio active agent:IDPP 0.25:1.00, within 24-hour period) | Parasthesia Irritation Rating (ratio active agent:IDPP 0.33:1.00, within 24-hour period) | Parasthesia Irritation Rating (ratio active agent:IDPP 0.43:1.00, within 24-hour period) | Parasthesia Irritation Rating [1] | Parasthesia Irritation Rating (active agent 1.00 without IDPP (—), within 24-hour period) | Parasthesia Irritation Rating (ratio active agent:IDPP 1.00:1.00, within 24-hour period) | Parasthesia Irritation Rating (ratio active agent:IDPP 1.50:1.00, within 24-hour period) |
| --- | --- | --- | --- | --- | --- | --- | --- | --- | --- |
| CC1(C)C(C=C(Cl)Cl)C1C(=O)OC(C#N)c1cccc(Oc2ccccc2)c1 (stereo not shown) [Cypermethrin] | 0.00 | 0.00 | 4.00 | 12.00 | 12.00 | 12.00 | – | – | – |
| CC(C)=CC1C(C(=O)OC(C#N)c2cccc(Oc3ccccc3)c2)C1(C)C (stereo not shown) [Cyphenothrin] | – | – | – | – | – | 0.00 | 12.00 | 0.00 | 4.00 |
